# Target: NAMPT enzyme (Homo sapiens (Human), UniProt P43490)
# Assay: Enzyme Assay and NMN Detection (NAMPT reaction, fluorescence detection of NMN)
# Type: biochemical
# Settings: Table B-1; NAMPT activation, NMN formation
# How it was run: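 Reaction in 50 mM HEPES pH 7.5, 5 mM MgCl2, 0.1% Prionex, 0.005% Tween 20, 1 mM TCEP at room temperature, with 16 nM NAMPT, 120 uM ATP, 5 uM nicotinamide, 6.25 uM PRPP, 0.04 U/ml pyrophosphatase for 2 h. Stopped with acetophenone/KOH then formic acid; NMN quantified by fluorescence (ex380/em460) against calibration curve.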
# Chain of NAMPT enzyme (P43490 whole entry, species assumed): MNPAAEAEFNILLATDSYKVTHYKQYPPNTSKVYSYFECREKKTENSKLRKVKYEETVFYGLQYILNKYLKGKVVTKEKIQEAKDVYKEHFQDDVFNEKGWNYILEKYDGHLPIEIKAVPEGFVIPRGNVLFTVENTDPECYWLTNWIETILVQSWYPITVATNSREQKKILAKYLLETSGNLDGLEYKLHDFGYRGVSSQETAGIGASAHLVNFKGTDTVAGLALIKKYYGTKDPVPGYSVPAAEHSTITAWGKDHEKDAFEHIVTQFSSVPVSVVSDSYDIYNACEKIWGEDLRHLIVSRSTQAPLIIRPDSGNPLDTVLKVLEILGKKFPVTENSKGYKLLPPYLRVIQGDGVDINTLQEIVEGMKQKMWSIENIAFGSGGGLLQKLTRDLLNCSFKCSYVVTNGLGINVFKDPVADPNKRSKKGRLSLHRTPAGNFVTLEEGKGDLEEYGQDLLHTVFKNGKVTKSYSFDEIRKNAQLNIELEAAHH
row,EC50,Structure (SMILES)
1,2 to 5 µM,O=C(NCc1cn[nH]c1)Nc1ccc(S(=O)(=O)Nc2ccccn2)cc1 [4-[3-(1H-Pyrazol-4-ylmethyl)-ureido]-N-pyridin-2-yl-benzenesulfonamide]
2,> 20 µM,"CCOC(=O)c1ccc(NC(=O)NCc2cn(Cc3ccc(OC)cc3)nn2)cc1 [Ethyl 4-(3-((1-(4-methoxybenzyl)-1H-1,2,3-triazol-4-yl)methyl)ureido)benzoate]"
3,> 20 µM,CCOC(=O)c1ccc(NC(=O)NCc2cn(C)cn2)cc1 [Ethyl 4-(3-((1-methyl-1H-imidazol-4-yl)methyl)ureido)benzoate]
4,> 20 µM,CCOC(=O)c1ccc(NC(=O)NCc2cncn2C)cc1 [Ethyl 4-(3-((1-methyl-1H-imidazol-5-yl)methyl)ureido)benzoate]
5,> 20 µM,CCOC(=O)c1ccc(NC(=O)NCc2cnn(C)c2)cc1 [Ethyl 4-(3-((1-methyl-1H-pyrazol-4-yl)methyl)ureido)benzoate]
6,> 20 µM,CCOC(=O)c1ccc(NC(=O)NCc2ccnn2C)cc1 [Ethyl 4-(3-((1-methyl-1H-pyrazol-5-yl)methyl)ureido)benzoate]
7,> 20 µM,"CCOC(=O)c1ccc(NC(=O)NCc2c[nH]nn2)cc1 [Ethyl 4-(3-((1H-1,2,3-triazol-4-yl)methyl)ureido)benzoate]"
8,> 20 µM,CCOC(=O)c1ccc(NC(=O)NCc2c[nH]cn2)cc1 [Ethyl 4-(3-((1H-imidazol-4-yl)methyl)ureido)benzoate]
9,> 20 µM,CCOC(=O)c1ccc(NC(=O)NCc2cnc[nH]2)cc1 [Ethyl 4-(3-((1H-imidazol-5-yl)methyl)ureido)benzoate]
10,> 20 µM,CCOC(=O)c1ccc(NC(=O)NCc2cc[nH]n2)cc1 [Ethyl 4-(3-((1H-pyrazol-3-yl)methyl)ureido)benzoate]
11,0.1 to 2 µM,CCOC(=O)c1ccc(NC(=O)NCc2cn[nH]c2)cc1 [Ethyl 4-(3-((1H-pyrazol-4-yl)methyl)ureido)benzoate]
12,> 20 µM,"CCOC(=O)c1ccc(NC(=O)NCc2c(C)noc2C)cc1 [Ethyl 4-(3-((3,5-dimethylisoxazol-4-yl)methyl)ureido)benzoate]"
13,> 20 µM,CCOC(=O)c1ccc(NC(=O)NCc2c[nH]nc2N)cc1 [Ethyl 4-(3-((3-amino-1H-pyrazol-4-yl)methyl)ureido)benzoate]
14,> 20 µM,CCOC(=O)c1ccc(NC(=O)NCc2c[nH]nc2C)cc1 [Ethyl 4-(3-((3-methyl-1H-pyrazol-4-yl)methyl)ureido)benzoate]
15,> 20 µM,CCOC(=O)c1ccc(NC(=O)NCc2cocn2)cc1 [Ethyl 4-(3-(oxazol-4-ylmethyl)ureido)benzoate]

# Same assay, conditions: Table B-2; NAMPT activation, NMN formation
row,EC50,Structure (SMILES)
1,5 to 20 µM,O=C(NCc1ccncc1)Nc1ccc(S(=O)(=O)Nc2ncccn2)cc1 [4-(3-Pyridin-4-ylmethyl-ureido)-N-pyrimidin-2-yl-benzenesulfonamide]
2,5 to 20 µM,O=C(NCc1ccncc1)Nc1ccc(S(=O)(=O)NC2CCNC2)cc1 (stereo not shown) [4-(3-Pyridin-4-ylmethyl-ureido)-N-pyrrolidin-3-yl-benzenesulfonamide]
3,0.1 to 2 µM,O=C(NCc1ccncc1)Nc1ccc(S(=O)(=O)Nc2nccs2)cc1 [4-(3-Pyridin-4-ylmethyl-ureido)-N-thiazol-2-yl-benzenesulfonamide]
4,0.1 to 2 µM,O=C(NCc1ccncc1)Nc1ccc(S(=O)(=O)Nc2ccccc2Cl)cc1 [4-(3-pyridin-4-ylmethyl-ureido)-N-(2-chloro-phenyl)-benzenesulfonamide]
5,0.1 to 2 µM,O=C(NCc1ccncc1)Nc1ccc(S(=O)(=O)Nc2cccc(Cl)c2)cc1 [4-(3-pyridin-4-ylmethyl-ureido)-N-(3-chloro-phenyl)-benzenesulfonamide]
6,0.1 to 2 µM,O=C(NCc1ccncc1)Nc1ccc(S(=O)(=O)Nc2ccc(Cl)cc2)cc1 [4-(3-pyridin-4-ylmethyl-ureido)-N-(4-chloro-phenyl)-benzenesulfonamide]
7,< 0.1 µM,O=C(NCc1ccncc1)Nc1ccc(NS(=O)(=O)c2ccc(Cl)cc2)cc1 [4-Chloro-N-[4-(3-pyridin-4-ylmethyl-ureido)-phenyl]-benzenesulfonamide]
8,0.1 to 2 µM,COc1ccc(S(=O)(=O)Nc2ccc(NC(=O)NCc3ccncc3)cc2)cc1 [4-Methoxy-N-[4-(3-pyridin-4-ylmethyl-ureido)-phenyl]-benzenesulfonamide]
9,0.1 to 2 µM,COC(=O)c1ccc(CNS(=O)(=O)c2ccc(NC(=O)NCc3ccncc3)cc2)cc1 [4-{[4-(3-Pyridin-4-ylmethyl-ureido)-benzenesulfonylamino]-methyl}-benzoic acid methyl ester]
10,> 20 µM,CCOC(=O)c1ccccc1NC(=O)NCc1ccncc1 [Ethyl 2-(3-(pyridin-4-ylmethyl)ureido)benzoate]
11,5 to 20 µM,CCOC(=O)c1cccc(NC(=O)NCc2ccncc2)c1 [Ethyl 3-(3-(pyridin-4-ylmethyl)ureido)benzoate]
12,> 20 µM,CCOC(=O)c1ccc(NC(=O)NCc2ccnc(N)c2)cc1 [Ethyl 4-(3-((2-aminopyridin-4-yl)methyl)ureido)benzoate]
13,> 20 µM,CCOC(=O)c1ccc(NC(=O)NCc2ccnc(Cl)c2)cc1 [Ethyl 4-(3-((2-chloropyridin-4-yl)methyl)ureido)benzoate]
14,> 20 µM,CCOC(=O)c1ccc(NC(=O)NCc2ccnc(F)c2)cc1 [Ethyl 4-(3-((2-fluoropyridin-4-yl)methyl)ureido)benzoate]
15,> 20 µM,CCOC(=O)c1ccc(NC(=O)NCc2ccnc(OC)c2)cc1 [Ethyl 4-(3-((2-methoxypyridin-4-yl)methyl)ureido)benzoate]
16,> 20 µM,CCOC(=O)c1ccc(NC(=O)NCc2ccnc(C)c2)cc1 [Ethyl 4-(3-((2-methylpyridin-4-yl)methyl)ureido)benzoate]
17,> 20 µM,CCOC(=O)c1ccc(NC(=O)NCc2ccncc2N)cc1 [Ethyl 4-(3-((3-aminopyridin-4-yl)methyl)ureido)benzoate]
18,> 20 µM,CCOC(=O)c1ccc(NC(=O)NCc2ccncc2Cl)cc1 [Ethyl 4-(3-((3-chloropyridin-4-yl)methyl)ureido)benzoate]
19,0.1 to 2 µM,CCOC(=O)c1ccc(NC(=O)NCc2ccncc2F)cc1 [Ethyl 4-(3-((3-fluoropyridm-4-yl)methyl)ureido)benzoate]
20,> 20 µM,CCOC(=O)c1ccc(NC(=O)NCc2ccncc2C)cc1 [Ethyl 4-(3-((3-methylpyridin-4-yl)methyl)ureido)benzoate]

# Same assay, conditions: Table B-3; NAMPT activation, NMN formation
row,EC50,Structure (SMILES)
1,2 to 5 µM,NC(=O)c1ccc(NC(=O)NCc2ccncc2)cn1 [5-(3-(pyridin-4-ylmethyl)ureido)picolinamide]
2,> 20 µM,"CCOC(=O)c1ccc(NC(=O)NCC2CCNc3ccccc32)cc1 (stereo not shown) [Ethyl 4-(3-((1,2,3,4-tetrahydroquinolin-4-yl)methyl)ureido)benzoate]"
3,> 20 µM,CCOC(=O)c1ccc(NC(=O)NCc2ccncc2Cl)cc1 [Ethyl 4-(3-((3-chloropyridin-4-yl)methyl)ureido)benzoate]

# Same assay, conditions: Table B-4; NAMPT activation, NMN formation
row,EC50,Structure (SMILES)
1,< 0.1 µM,O=C(NCc1cn[nH]c1)Nc1ccc(NS(=O)(=O)Cc2ccccc2Cl)cc1 [C-(2-Chloro-phenyl)-N-{4-[3-(1H-pyrazol-4-ylmethyl)-ureido]-phenyl}-methanesulfonamide]
2,< 0.1 µM,"O=C(NCc1cn[nH]c1)Nc1ccc(NS(=O)(=O)Cc2ccc(Cl)c(Cl)c2)cc1 [C-(3,4-Dichloro-phenyl)-N-{4-[3-(1H-pyrazol-4-ylmethyl)-ureido]-phenyl}-methanesulfonamide]"
3,< 0.1 µM,O=C(NCc1cn[nH]c1)Nc1ccc(NS(=O)(=O)Cc2cccc(Cl)c2)cc1 [C-(3-Chloro-phenyl)-N-{4-[3-(1H-pyrazol-4-ylmethyl)-ureido]-phenyl}-methanesulfonamide]
4,< 0.1 µM,O=C(NCc1cn[nH]c1)Nc1ccc(NS(=O)(=O)Cc2ccc(Cl)cc2)cc1 [C-(4-Chloro-phenyl)-N-{4-[3-(1H-pyrazol-4-ylmethyl)-ureido]-phenyl}-methanesulfonamide]

# Same assay, conditions: Table B-6; NAMPT activation, NMN formation
row,EC50,Structure (SMILES)
1,< 0.1 µM,O=C(NCc1ccncc1)Nc1ccc(NS(=O)(=O)Cc2ccccc2Br)cc1 [C-(2-Bromo-phenyl)-N-[4-(3-pyridin-4-ylmethyl-ureido)-phenyl]-methanesulfonamide]
2,< 0.1 µM,O=C(NCc1ccncc1)Nc1ccc(NS(=O)(=O)Cc2ccccc2F)cc1 [C-(2-Fluoro-phenyl)-N-[4-(3-pyridin-4-ylmethyl-ureido)-phenyl]-methanesulfonamide]
3,0.1 to 2 µM,COc1ccccc1CS(=O)(=O)Nc1ccc(NC(=O)NCc2ccncc2)cc1 [C-(2-Methoxy-phenyl)-N-[4-(3-pyridin-4-ylmethyl-ureido)-phenyl]-methanesulfonamide]
4,< 0.1 µM,O=C(NCc1ccncc1)Nc1ccc(NS(=O)(=O)Cc2cccc(F)c2)cc1 [C-(3-Fluoro-phenyl)-N-[4-(3-pyridin-4-ylmethyl-ureido)-phenyl]-methanesulfonamide]
5,< 0.1 µM,COc1cccc(CS(=O)(=O)Nc2ccc(NC(=O)NCc3ccncc3)cc2)c1 [C-(3-Methoxy-phenyl)-N-[4-(3-pyridin-4-ylmethyl-ureido)-phenyl]-methanesulfonamide]
6,< 0.1 µM,O=C(NCc1ccncc1)Nc1ccc(NS(=O)(=O)Cc2ccc(Br)cc2)cc1 [C-(4-Bromo-phenyl)-N-[4-(3-pyridin-4-ylmethyl-ureido)-phenyl]-methanesulfonamide]
7,0.1 to 2 µM,N#Cc1ccc(CS(=O)(=O)Nc2ccc(NC(=O)NCc3ccncc3)cc2)cc1 [C-(4-Cyano-phenyl)-N-[4-(3-pyridin-4-ylmethyl-ureido)-phenyl]-methanesulfonamide]
8,< 0.1 µM,O=C(NCc1ccncc1)Nc1ccc(NS(=O)(=O)Cc2ccc(C3CC3)cc2)cc1 [C-(4-Cyclopropyl-phenyl)-N-[4-(3-pyridin-4-ylmethyl-ureido)-phenyl]-methanesulfonamide]
9,< 0.1 µM,COc1ccc(CS(=O)(=O)Nc2ccc(NC(=O)NCc3ccncc3)cc2)cc1 [C-(4-Methoxy-phenyl)-N-[4-(3-pyridin-4-ylmethyl-ureido)-phenyl]-methanesulfonamide]
10,< 0.1 µM,O=C(NCc1ccncc1)Nc1ccc(NS(=O)(=O)Cc2ccc(-c3ccccc3)cc2)cc1 [C-Biphenyl-4-yl-N-[4-(3-pyridin-4-ylmethyl-ureido)-phenyl]-methanesulfonamide]

# — US11452717B2, “Small molecule activators of nicotinamide phosphoribosyltransferase (NAMPT) and uses thereof” (Sanford Burnham Prebys Medical Discovery Institute, priority 2017, dated 2022)
